Data on four compounds can be found in patent US20060035847A1, “Glucopyranosyloxyprazole derivatives and use thereof in medicines” (KISSEI PHARMACEUTICAL CO., LTD., priority 2000, published 2006).

A value given as a limit tells only on which side of the number the result lay.

Series [1] relates to normal mice. Particulars: cited from earlier work.
Series [2] has as its target T1, human SGLT2 (Homo sapiens, UniProt P31639, I433V).
T1 construct: expressed in transfected cells; host or cells: COS-7 cells (RIKEN CELL BANK RCB0539), transient, electroporation
T1 sequence (P31639 1-672 I433V): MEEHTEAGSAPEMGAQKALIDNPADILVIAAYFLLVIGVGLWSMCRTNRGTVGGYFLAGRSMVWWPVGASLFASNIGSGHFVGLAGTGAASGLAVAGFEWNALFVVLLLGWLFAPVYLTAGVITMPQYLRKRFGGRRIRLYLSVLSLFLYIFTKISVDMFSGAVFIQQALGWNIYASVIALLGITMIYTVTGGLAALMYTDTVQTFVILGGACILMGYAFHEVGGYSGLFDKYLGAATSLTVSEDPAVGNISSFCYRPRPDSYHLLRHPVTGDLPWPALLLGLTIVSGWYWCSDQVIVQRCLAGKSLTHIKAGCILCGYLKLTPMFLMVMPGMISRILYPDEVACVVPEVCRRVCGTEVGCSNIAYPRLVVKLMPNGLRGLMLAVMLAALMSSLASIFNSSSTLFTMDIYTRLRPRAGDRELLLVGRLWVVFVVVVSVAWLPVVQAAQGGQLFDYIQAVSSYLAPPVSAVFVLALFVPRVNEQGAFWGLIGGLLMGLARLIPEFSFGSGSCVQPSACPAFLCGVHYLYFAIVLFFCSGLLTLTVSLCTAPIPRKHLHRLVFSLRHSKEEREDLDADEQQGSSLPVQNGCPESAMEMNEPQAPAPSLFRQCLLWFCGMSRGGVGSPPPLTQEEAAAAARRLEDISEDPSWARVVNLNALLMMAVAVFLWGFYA
Kind of series: Assay for inhibitory effect on human SGLT2 activity (methyl-α-D-glucopyranoside uptake in COS-7 cells transiently expressing human SGLT2). The class given is cell-based. The method, then:
Assay for Inhibitory Effect on Human SGLT2 Activity
1) Construction of the Plasmid Vector Expressing Human SGLT2
Preparation of the cDNA library for PCR amplification was performed by reverse transcription of a total RNA deprived from human kidney (Ori gene) with oligo dT as the primer, using SUPERSCRIPT Preamplification System (Gibco-BRL: LIFE TECHNOLOGIES). The DNA fragment coding for human SGLT2 was amplified by the PCR reaction, in which the human kidney cDNA library described above was used as the template and the following oligo nucleotides 0702F and 0712R, presented as sequence number 1 and 2 respectively, were used as the primers. The amplified DNA fragment was ligated into pCR-Blunt (Invitrogen), a vector for cloning, according to standard method of the kit. The Escherichia coli HB101 was transformed according to usual method and then selection of the transformants was performed on the LB agar medium containing 50 μg/mL of kanamycin. After plasmid DNA was extracted and purified from the one of the transformants, amplifying of the DNA fragment coding for human SGLT2 was performed by the PCR reaction, in which the following oligo nucleotides 0714F and 0715R, presented as sequence number 3 and 4 respectively, were used as the primers. The amplified DNA fragment was digested with restriction enzymes, Xho I and Hind III, and then purified with Wizard Purification System (Promega). This purified DNA fragment was inserted at into the corresponding restriction sites of pcDNA3.1 (−) Myc/His—B (Invitrogen), a vector for expressing of fusion protein. The Escherichia coli HB101 was transformed according to usual method and then selection of the transformant was performed on the LB agar medium containing 100 μg/mL of ampicillin. After plasmid DNA was extracted and purified from this transformant, the base sequence of the DNA fragment inserted at the multi-cloning sites of the vector pcDNA3.1 (−) Myc/His—B was analyzed. […] Sequentially, a clone in which valine is substituted for isoleucine-433 was obtained. This plasmid vector expressing human SGLT2 in which the peptide presented as sequence number 5 is fused to the carboxyl terminal alanine residue was designated KL29.
2) Preparation of the Cells Expressing Transiently Human SGLT2
KL29, the plasmid coding human SGLT2, was transfected into COS-7 cells (RIKEN CELL BANK RCB0539) by electroporation. Electroporation was performed with GENE PULSER II (Bio-Rad Laboratories) under the condition: 0.290 kV, 975 μF, 2×10^6 cells of COS-7 cell and 20 μg of KL29 in 500 μL of OPTI-MEM I medium (Gibco-BRL: LIFE TECHNOLOGIES) in the 0.4 cm type cuvette. After the gene transfer, the cells were harvested by centrifugation and resuspended with OPTI-MEM I medium (1 mL/cuvette). To each well in 96-wells plate, 125 μL of this cell suspension was added. After overnight culture at 37° C. under 5% CO2, 125 μL of DMEM medium which is containing 10% of fetal bovine serum (Sanko Jyunyaku), […] sodium penicillin G (Gibco-BRL: LIFE TECHNOLOGIES), 100 μg/mL streptomycin sulfate (Gibco-BRL: LIFE TECHNOLOGIES) was added to each well. These cells were cultured until the next day and then they were used for the measurement of the inhibitory activity against the uptake of methyl-α-D-glucopyranoside.
3) Measurement of the Inhibitory Activity Against the Uptake of methyl-α-D-glucopyranoside
After a test compounds was dissolved in dimethyl sulfoxide and diluted with the uptake buffer (a pH 7.4 buffer containing 140 mM sodium chloride, 2 mM potassium chloride, 1 mM calcium chloride, 1 mM magnesium chloride, 5 mM methyl-α-D-glucopyranoside, 10 mM 2-[4-(2-hydroxyethyl)-1-piperazinyl]ethane sulfonic acid and 5 mM tris(hydroxymethyl)aminomethane), each diluent was used as test sample for measurement of the inhibitory activity. […]

The test system of series [3] is SD rats. The experiment in a line: Assay for the facilitatory effect on urinary glucose excretion. It is filed as in vivo. The settings on record: glucose load 2 g/kg, 24 hours urine. The method, then:
Assay for the Facilitatory Effect on Urinary Glucose Excretion
(§1) As experimental animal, overnight fasted SD rats (Japan SLC. Inc., male, 7 weeks of age, 202-221 g) were used. A Test compound was suspended in 0.5% sodium carboxymethylcellulose solution at the concentration of 2 mg/mL. When homogenous suspension was not obtained in this condition, the test compound was dissolved in ethanol at the concentration of 200 mg/mL of active form and then 2 mg/mL suspension was obtained by adding this solution to 99 times volumes of 0.5% sodium carboxymethylcellulose solution. A part of this suspension was diluted with 0.5% sodium carboxymethylcellulose solution and then 0.6 and 0.2 mg/mL suspensions were prepared. After the body weights of rats were measured, the test suspension was orally administered at the dose of 5 mL/kg (1, 3 and 10 mg/kg). For control, just only 0.5% sodium carboxymethylcellulose solution was orally administered at the dose of 5 mL/kg. Immediately after this oral administration, 400 g/L glucose solution was orally administered at the dose of 5 mL/kg (2 g/kg). The oral administration was performed with gastric tube for rat and 2.5 mL syringe. The head count in one group was 3. Collection of urine was performed in metabolic cage after the glucose administration was finished. The sampling time for collection of urine was 24 hours after the glucose administration. After collection of urine was finished, the urine volume was recorded and the urinary glucose concentration was measured. The glucose concentration was measured with a kit for laboratory test: Glucose B-Test WAKO (Wako Pure Chemical Industries, Ltd.). The amount of urinary glucose excretion in 24 hours per 200 g of body weight was calculated from urine volume, urinary glucose concentration and body weight.
as §1, with “bodyweights” for “body weights”

For series [4], the system named is ICR mice. The experiment in a line: Acute toxicity test. It is filed as in vivo. Particulars: male ICR mice, oral 2000 mg/kg, observation until 24 hours, 5 animals in each group. The method, then: After 4 week old male ICR mice (Japan SLC. Inc., 20-25 g, 5 animals in each group) were fasted for 4 hours, the suspension (200 mg/mL) prepared by adding of 0.5% sodium carboxymethylcellulose solution to the test compound was orally administered at the dose of 10 mL/kg (2000 mg/kg). Observation was performed until 24 hours after the administration.

On to `CSc1ccc(Cc2c(C(F)(F)F)[nH][nH]c2=O)cc1` [WAY-123783, reference compound], for which the “amount of excreted glucose” value in series [1] is listed as “increased”. In addition, the “inhibitory activity in human SGLT2 (in words)” value in series [2] is reported as “extremely weak inhibitory activity”. Also, the IC50 in series [2] (inhibition of methyl-α-D-glucopyranoside uptake, COS-7 cells expressing human SGLT2, 37° C., 2 hours) is over 100 µM.

Turning to `COC(=O)OC[C@H]1O[C@@H](Oc2nn(C(C)C)c(C)c2Cc2ccc(OC(C)C)cc2)[C@H](O)[C@@H](O)[C@@H]1O` [Example 15, 4-[(4-Isopropoxyphenyl)methyl]-1-isopropyl-3-(6-O-methoxycarbonyl-β-D-glucopyranosyloxy)-5-methylpyrazole], the “Amount of Urinary Glucose Excretion” value is on record as 1.7 mg/24 hours · 200 g body weight in series [3] (oral dose 1 mg/kg), 36.8 mg/24 hours · 200 g body weight in series [3] (oral dose 3 mg/kg) and 167.3 mg/24 hours · 200 g body weight in series [3] (oral dose 10 mg/kg).

Turning to `COC(=O)OC[C@H]1O[C@@H](Oc2n[nH]c(C)c2Cc2ccc(OC(C)C)cc2)[C@H](O)[C@@H](O)[C@@H]1O` [Example 48, 4-[(4-Isopropoxyphenyl)methyl]-3-(6-O-methoxycarbonyl-β-D-glucopyranosyloxy)-5-methyl-1H-pyrazole], in series [4], the Death number is on record as 0/5.

For `CCOC(=O)OC[C@H]1O[C@@H](Oc2nn(C(C)C)c(C)c2Cc2ccc(OC(C)C)cc2)[C@H](O)[C@@H](O)[C@@H]1O` [Example 1, 3-(6-O-Ethoxycarbonyl-β-D-glucopyranosyloxy)-4-[(4-isopropoxyphenyl)methyl]-1-isopropyl-5-methylpyrazole], the “Amount of Urinary Glucose Excretion” value is 1.6 mg/24 hours · 200 g body weight in series [3] (oral dose 1 mg/kg), 28.3 mg/24 hours · 200 g body weight in series [3] (oral dose 3 mg/kg) and 127.5 mg/24 hours · 200 g body weight in series [3] (oral dose 10 mg/kg).

What is called IC50 is the point on the concentration scale where inhibition reaches its midpoint. Higher therefore signals weaker potency.
